# Laboratory results from ChEMBL document CHEMBL3046368, “Synthesis of benzothiazole derivatives and their biological evaluation as anticancer agents” (2012).
# Tests used:
# Assay type in all cases: functional
# RXF 393 = assay: Cytotoxicity against Homo sapiens (human) RXF393 cells after 48 hr by SRB assay; conditions: RXF 393, 48 h
# K562 = assay: Cytotoxicity against Homo sapiens (human) K562 cells after 48 hr by SRB assay; conditions: K562, 48 h
# HOP-92 = assay: Cytotoxicity against Homo sapiens (human) HOP92 cells after 48 hr by SRB assay; conditions: HOP-92, 48 h
# A549 = assay: Cytotoxicity against Homo sapiens (human) A549 cells after 48 hr by SRB assay; conditions: A549, 48 h
# SK-MEL-2 = assay: Cytotoxicity against Homo sapiens (human) SK-MEL-2 cells after 48 hr by SRB assay; conditions: SK-MEL-2, 48 h
# UACC-257 = assay: Cytotoxicity against Homo sapiens (human) UACC257 cells after 48 hr by SRB assay; conditions: UACC-257, 48 h
# [1] = Cytotoxicity against Homo sapiens (human) CNSC cells assessed as cell growth at 10^-5 M after 48 hr by SRB assay relative to control; conditions: read-out: Activity
# SW-620 = assay: Cytotoxicity against Homo sapiens (human) SW620 cells after 48 hr by SRB assay; conditions: SW-620, 48 h
# HT-29 = assay: Cytotoxicity against Homo sapiens (human) HT-29 cells after 48 hr by SRB assay; conditions: HT-29, 48 h
# ACHN = assay: Cytotoxicity against Homo sapiens (human) ACHN cells after 48 hr by SRB assay
# HCT-116 = assay: Cytotoxicity against Homo sapiens (human) HCT116 cells after 48 hr by SRB assay; conditions: HCT-116, 48 h
# LOX IMVI = assay: Cytotoxicity against Homo sapiens (human) LOXIMVI cells after 48 hr by SRB assay
# KM12 = assay: Cytotoxicity against Homo sapiens (human) KM12 cells after 48 hr by SRB assay; conditions: KM12, 48 h
# MDA-MB-435 = assay: Cytotoxicity against Homo sapiens (human) MDA-MB-435 cells after 48 hr by SRB assay; conditions: MDA-MB-435, 48 h
# SF-295 = assay: Cytotoxicity against Homo sapiens (human) SF295 cells after 48 hr by SRB assay; conditions: SF-295, 48 h
# OVCAR-3 = assay: Cytotoxicity against Homo sapiens (human) OVCAR3 cells after 48 hr by SRB assay; conditions: OVCAR-3, 48 h
# [2] = Cytotoxicity against Homo sapiens (human) renal cancer cells assessed as cell growth at 10^-5 M after 48 hr by SRB assay relative to control; conditions: Cancer cell lines, read-out: Activity
# SK-MEL-5 = assay: Cytotoxicity against Homo sapiens (human) SK-MEL-5 cells after 48 hr by SRB assay; conditions: SK-MEL-5, 48 h
# A498 = assay: Cytotoxicity against Homo sapiens (human) A498 cells after 48 hr by SRB assay; conditions: A498, 48 h
# U-251 = assay: Cytotoxicity against Homo sapiens (human) U251 cells after 48 hr by SRB assay; conditions: U-251, 48 h
# SK-MEL-28 = assay: Cytotoxicity against Homo sapiens (human) SK-MEL-28 cells after 48 hr by SRB assay; conditions: SK-MEL-28, 48 h
# CCRF-CEM = assay: Cytotoxicity against Homo sapiens (human) CCRF-CEM cells after 48 hr by SRB assay
# COLO 205 = assay: Cytotoxicity against Homo sapiens (human) COLO205 cells after 48 hr by SRB assay; conditions: COLO 205, 48 h
# EKVX = assay: Cytotoxicity against Homo sapiens (human) EKVX cells after 48 hr by SRB assay
# SR = assay: Cytotoxicity against Homo sapiens (human) SR cells after 48 hr by SRB assay
# SF-268 = assay: Cytotoxicity against Homo sapiens (human) SF268 cells after 48 hr by SRB assay; conditions: SF-268, 48 h
# [3] = Cytotoxicity against Homo sapiens (human) leukemia cells assessed as cell growth at 10^-5 M after 48 hr by SRB assay relative to control; conditions: read-out: Activity
# NCI-H322M = assay: Cytotoxicity against Homo sapiens (human) NCI-H322M cells after 48 hr by SRB assay
# SNB-19 = assay: Cytotoxicity against Homo sapiens (human) SNB19 cells after 48 hr by SRB assay; conditions: SNB-19, 48 h
# DU-145 = assay: Cytotoxicity against Homo sapiens (human) DU145 cells after 48 hr by SRB assay; conditions: DU-145, 48 h
# NCI/ADR-RES = assay: Cytotoxicity against Homo sapiens (human) NCI/ADR-RES cells after 48 hr by SRB assay
# CAKI-1 = assay: Cytotoxicity against Homo sapiens (human) Caki1 cells after 48 hr by SRB assay; conditions: CAKI-1, 48 h
# NCI-H23 = assay: Cytotoxicity against Homo sapiens (human) NCI-H23 cells after 48 hr by SRB assay; conditions: NCI-H23, 48 h
# Malme-3M = assay: Cytotoxicity against Homo sapiens (human) MALME-3M cells after 48 hr by SRB assay
# UO-31 = assay: Cytotoxicity against Homo sapiens (human) UO31 cells after 48 hr by SRB assay; conditions: UO-31, 48 h
# OVCAR-5 = assay: Cytotoxicity against Homo sapiens (human) OVCAR5 cells after 48 hr by SRB assay; conditions: OVCAR-5, 48 h
# SNB-75 = assay: Cytotoxicity against Homo sapiens (human) SNB75 cells after 48 hr by SRB assay; conditions: SNB-75, 48 h
# [4] = Cytotoxicity against Homo sapiens (human) prostate cancer cells assessed as cell growth at 10^-5 M after 48 hr by SRB assay relative to control; conditions: Cancer cell lines, read-out: Activity
# HOP-62 = assay: Cytotoxicity against Homo sapiens (human) HOP62 cells after 48 hr by SRB assay; conditions: HOP-62, 48 h
# 786-0 = assay: Cytotoxicity against Homo sapiens (human) 786-0 cells after 48 hr by SRB assay; conditions: 786-0, 48 h
smiles,measurement,setting,value
N#Cc1ccc(NC(=O)Nc2nc3ccc(OC(F)(F)F)cc3s2)cc1,GI50,RXF 393,1860 nM
same,GI50,K562,537 nM
same,GI50,HOP-92,324 nM
same,GI50,A549,1200 nM
same,GI50,SK-MEL-2,1780 nM
same,GI50,UACC-257,1350 nM
same,growth at 10 µM,[1],2.6%
same,GI50,SW-620,1620 nM
same,GI50,HT-29,2090 nM
same,GI50,ACHN,724 nM
same,GI50,HCT-116,550 nM
same,GI50,LOX IMVI,1480 nM
same,GI50,KM12,1020 nM
same,GI50,MDA-MB-435,1410 nM
same,GI50,SF-295,1170 nM
same,GI50,OVCAR-3,575 nM
same,growth at 10 µM,[2],-7.46%
same,GI50,SK-MEL-5,1150 nM
same,GI50,A498,468 nM
same,GI50,U-251,1410 nM
same,GI50,SK-MEL-28,2290 nM
same,GI50,CCRF-CEM,1510 nM
same,GI50,COLO 205,1700 nM
same,GI50,EKVX,1350 nM
same,GI50,SR,741 nM
same,GI50,SF-268,3.09 µM
same,growth at 10 µM,[3],-17.4%
same,GI50,NCI-H322M,2.4 µM
same,GI50,SNB-19,1510 nM
same,GI50,DU-145,2.69 µM
same,GI50,NCI/ADR-RES,1550 nM
same,GI50,CAKI-1,1580 nM
same,GI50,NCI-H23,575 nM
same,GI50,Malme-3M,851 nM
same,GI50,UO-31,1660 nM
same,GI50,OVCAR-5,4.27 µM
same,GI50,SNB-75,1820 nM
same,growth at 10 µM,[4],13%
same,GI50,HOP-62,2.51 µM
same,GI50,786-0,2000 nM
O=C(Nc1ccc(F)cc1)Nc1nc2ccc(OC(F)(F)F)cc2s1,GI50,RXF 393,2690 nM
same,GI50,K562,3550 nM
same,GI50,HOP-92,3890 nM
same,GI50,A549,3470 nM
same,GI50,SK-MEL-2,3090 nM
same,GI50,UACC-257,3550 nM
same,growth at 10 µM,[1],21.1%
same,GI50,SW-620,3720 nM
same,GI50,HT-29,3890 nM
same,GI50,ACHN,2400 nM
same,GI50,HCT-116,2950 nM
same,GI50,LOX IMVI,3240 nM
same,GI50,KM12,2690 nM
same,GI50,MDA-MB-435,2950 nM
same,GI50,SF-295,2570 nM
same,GI50,OVCAR-3,2240 nM
same,growth at 10 µM,[2],15.8%
same,GI50,SK-MEL-5,2450 nM
same,GI50,A498,2950 nM
same,GI50,U-251,3980 nM
same,GI50,SK-MEL-28,3630 nM
same,GI50,CCRF-CEM,3980 nM
same,GI50,COLO 205,2090 nM
same,GI50,EKVX,2630 nM
same,GI50,SR,3720 nM
same,GI50,SF-268,3.72 µM
same,growth at 10 µM,[3],17.3%
same,GI50,NCI-H322M,4.47 µM
same,GI50,SNB-19,3720 nM
same,GI50,DU-145,3.47 µM
same,GI50,NCI/ADR-RES,3390 nM
same,GI50,CAKI-1,2290 nM
same,GI50,NCI-H23,2880 nM
same,GI50,Malme-3M,2950 nM
same,GI50,UO-31,3470 nM
same,GI50,OVCAR-5,3.63 µM
same,GI50,SNB-75,3470 nM
same,growth at 10 µM,[4],12.4%
same,GI50,HOP-62,3.8 µM
same,GI50,786-0,3470 nM
